Like-named read-outs stand apart in the source and are kept apart here.
Test: Study A16 Part 1: PK of single ascending oral doses of fospropofol disodium (200 to 2000 mg), fasted healthy adults
Assay type: in vivo, human
Conditions: for AUC / Cmax / Tmax / AUC(0-t) / AUC(0-inf) / half-life: human, plasma; for Cmax: read-out: Fospropofol Cmax; for AUC(0-t): read-out: Fospropofol AUC0-T; for AUC(0-inf): read-out: Fospropofol AUC0-∞; for half-life: read-out: Fospropofol t1/2 (converted)
Method: Part 1 of Study A16 was a double-blind, randomized, placebo-controlled study to investigate the safety-tolerability and PK of oral administration of single ascending doses of fospropofol disodium to healthy adult male and female volunteers.
Subjects were healthy adults (age 18-55 years inclusive, BMI 18-29.9 kg/m^2). Separate cohorts of 12 subjects each were randomized to receive fospropofol disodium at doses of 200, 400, 800, 1000, 1200, 1600, or 2000 mg (n=10 per cohort) or matching placebo (n=2 per cohort).
Subjects were admitted to the clinical unit for an overnight fast (Day −1), administered study drug on Day 1, and remained in the clinical unit until Day 2.
Fospropofol disodium was formulated as powder in an HPMC capsule, each capsule containing 200 mg of fospropofol disodium (weight adjusted for water content). Placebo was administered as an appropriate number of matching capsules.
Based on PK results from the early cohorts, sampling times were optimized beginning with Cohort 3 (800 mg) to preclose, 5, 10, 15, 20, 25, 30, 37, and 45, minutes and 1, 2, 4, 6, and 9 hours after closing.

[1] = both sexes, oral fospropofol disodium 200 mg, mean
[2] = both sexes, oral fospropofol disodium 400 mg, mean
[3] = both sexes, oral fospropofol disodium 800 mg, mean
[4] = both sexes, oral fospropofol disodium 1000 mg, mean
[5] = both sexes, oral fospropofol disodium 1200 mg, mean
[6] = both sexes, oral fospropofol disodium 1600 mg, mean
[7] = both sexes, oral fospropofol disodium 2000 mg, mean

Compound: CC(C)c1cccc(C(C)C)c1OCOP(=O)(O)O [fospropofol, (2,6-diisopropylphenoxy)methyl dihydrogen phosphate]
- Dose proportionality of fospropofol AUC0-2h, AUC0-T, AUC0-∞, and Cmax (power model) (200 mg to 2000 mg): close proportional
- AUC (both sexes, oral, 800 mg, subjects 301-312 (800 mg cohort), Mean, read-out: Fospropofol AUC1): 2.78 µg·h/mL
- AUC (both sexes, oral, 800 mg, subjects 301-312 (800 mg cohort), Mean, read-out: Fospropofol AUC2): 3.33 µg·h/mL
- AUC (both sexes, oral, 800 mg, subjects 301-312 (800 mg cohort), Mean, read-out: Fospropofol AUC4): 3.44 µg·h/mL
- Cmax (both sexes, oral, 800 mg, subjects 301-312 (800 mg cohort), Mean): 6.04 µg/mL
- Tmax (both sexes, oral, 800 mg, subjects 301-312 (800 mg cohort), Mean, read-out: Fospropofol Tmax): 20.4 min
- Tmax (both sexes, oral, 800 mg, subjects 301-312 (800 mg cohort), individual subjects (Subject No. in c0), read-out: Fospropofol Tmax): 30 min
- Tmax (both sexes, oral, 200 to 2000 mg cohorts, read-out: Fospropofol median Tmax (converted)): ~20 min
- Cmax (both sexes, po, 200 mg, oral fospropofol disodium 200 mg, mean): 1.98 µg/mL
- Tmax (both sexes, po, 200 mg, oral fospropofol disodium 200 mg, median, read-out: Fospropofol Tmax): 19.8 min
- Cmax (both sexes, po, 400 mg, oral fospropofol disodium 400 mg, mean): 4.46 µg/mL
- Tmax (both sexes, po, 400 mg, oral fospropofol disodium 400 mg, median, read-out: Fospropofol Tmax): 19.8 min
- Cmax (both sexes, po, 800 mg, oral fospropofol disodium 800 mg, mean): 6.04 µg/mL
- Tmax (both sexes, po, 800 mg, oral fospropofol disodium 800 mg, median, read-out: Fospropofol Tmax): 19.8 min
- Cmax (both sexes, po, 1000 mg, oral fospropofol disodium 1000 mg, mean): 8.24 µg/mL
- Tmax (both sexes, po, 1000 mg, oral fospropofol disodium 1000 mg, median, read-out: Fospropofol Tmax): 19.8 min
- Cmax (both sexes, po, 1200 mg, oral fospropofol disodium 1200 mg, Fasted (Cohort 5), n = 10, mean): 7.11 µg/mL
- Tmax (both sexes, po, 1200 mg, oral fospropofol disodium 1200 mg, Fasted (Cohort 5), n = 10, median, read-out: Fospropofol Tmax): 19.8 min
- Cmax (both sexes, po, 1200 mg, oral fospropofol disodium 1200 mg, mean): 7.11 µg/mL
- Tmax (both sexes, po, 1200 mg, oral fospropofol disodium 1200 mg, median, read-out: Fospropofol Tmax): 19.8 min
- Cmax (both sexes, po, 1600 mg, oral fospropofol disodium 1600 mg, mean): 10.2 µg/mL
- Tmax (both sexes, po, 1600 mg, oral fospropofol disodium 1600 mg, median, read-out: Fospropofol Tmax): 19.8 min
- Cmax (both sexes, po, 2000 mg, oral fospropofol disodium 2000 mg, mean): 17.1 µg/mL
- Tmax (both sexes, po, 2000 mg, oral fospropofol disodium 2000 mg, median, read-out: Fospropofol Tmax): 22.8 min
- AUC(0-t) [1]: 0.856 µg·h/mL
- AUC(0-inf) [1]: 0.882 µg·h/mL
- half-life [1]: 12.6 min
- AUC(0-t) [2]: 2.2 µg·h/mL
- AUC(0-inf) [2]: 2.23 µg·h/mL
- half-life [2]: 14.4 min
- AUC(0-t) [3]: 3.29 µg·h/mL
- AUC(0-inf) [3]: 3.36 µg·h/mL
- half-life [3]: 16.2 min
- AUC(0-t) [4]: 4.7 µg·h/mL
- AUC(0-inf) [4]: 4.84 µg·h/mL
- half-life [4]: 17.4 min
- AUC(0-t) [5]: 4.4 µg·h/mL
- AUC(0-inf) [5]: 4.5 µg·h/mL
- half-life [5]: 20.4 min
- AUC(0-t) [6]: 6.09 µg·h/mL
- AUC(0-inf) [6]: 6.3 µg·h/mL
- half-life [6]: 21 min
- AUC(0-t) [7]: 10.8 µg·h/mL
- AUC(0-inf) [7]: 11 µg·h/mL
- half-life [7]: 22.2 min
- Fospropofol concentration relative to Cmax (by 2 hours after dosing): less than 10 % of Cmax
- Fospropofol AUC0-T/mg FOSP DiNa (dose 200 mg FOSPDiNa): 4.28 (ng · h/mL)/mg
- Fospropofol AUC0-∞/mg FOSP DiNa (dose 200 mg FOSPDiNa): 4.41 (ng · h/mL)/mg
- Fospropofol Cmax/mg FOSP DiNa (dose 200 mg FOSPDiNa): 9.89 (ng/mL)/mg
- Fospropofol AUC0-T/mg FOSP DiNa (dose 400 mg FOSPDiNa): 5.51 (ng · h/mL)/mg
- Fospropofol AUC0-∞/mg FOSP DiNa (dose 400 mg FOSPDiNa): 5.58 (ng · h/mL)/mg
- Fospropofol Cmax/mg FOSP DiNa (dose 400 mg FOSPDiNa): 11.15 (ng/mL)/mg
- Fospropofol AUC0-T/mg FOSP DiNa (dose 800 mg FOSPDiNa): 4.11 (ng · h/mL)/mg
- Fospropofol AUC0-∞/mg FOSP DiNa (dose 800 mg FOSPDiNa): 4.20 (ng · h/mL)/mg
- Fospropofol Cmax/mg FOSP DiNa (dose 800 mg FOSPDiNa): 7.55 (ng/mL)/mg
- Fospropofol AUC0-T/mg FOSP DiNa (dose 1000 mg FOSPDiNa): 4.70 (ng · h/mL)/mg
- Fospropofol AUC0-∞/mg FOSP DiNa (dose 1000 mg FOSPDiNa): 4.85 (ng · h/mL)/mg
- Fospropofol Cmax/mg FOSP DiNa (dose 1000 mg FOSPDiNa): 8.24 (ng/mL)/mg
- Fospropofol AUC0-T/mg FOSP DiNa (dose 1200 mg FOSPDiNa): 3.67 (ng · h/mL)/mg
- Fospropofol AUC0-∞/mg FOSP DiNa (dose 1200 mg FOSPDiNa): 3.75 (ng · h/mL)/mg
- Fospropofol Cmax/mg FOSP DiNa (dose 1200 mg FOSPDiNa): 5.93 (ng/mL)/mg
- Fospropofol AUC0-T/mg FOSP DiNa (dose 1600 mg FOSPDiNa): 3.81 (ng · h/mL)/mg
- Fospropofol AUC0-∞/mg FOSP DiNa (dose 1600 mg FOSPDiNa): 3.94 (ng · h/mL)/mg
- Fospropofol Cmax/mg FOSP DiNa (dose 1600 mg FOSPDiNa): 6.40 (ng/mL)/mg
- Fospropofol AUC0-T/mg FOSP DiNa (dose 2000 mg FOSPDiNa): 5.41 (ng · h/mL)/mg
- Fospropofol AUC0-∞/mg FOSP DiNa (dose 2000 mg FOSPDiNa): 5.49 (ng · h/mL)/mg
- Fospropofol Cmax/mg FOSP DiNa (dose 2000 mg FOSPDiNa): 8.54 (ng/mL)/mg
- AUC (female, oral, 800 mg, females only (800 mg cohort), Mean, read-out: Fospropofol Auc1): 3.05 µg·h/mL
- AUC (female, oral, 800 mg, females only (800 mg cohort), Mean, read-out: Fospropofol Auc2): 3.71 µg·h/mL
- AUC (female, oral, 800 mg, females only (800 mg cohort), Mean, read-out: Fospropofol Auc4): 3.87 µg·h/mL
- Cmax (female, oral, 800 mg, females only (800 mg cohort), Mean): 6.73 µg/mL
- Tmax (female, oral, 800 mg, females only (800 mg cohort), Mean, read-out: Fospropofol Tmax): 22.2 min

Reference: patent US12377110B2, “Fospropofol methods and compositions” (Epalex Corporation, priority 2019, dated 2025)
